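Each compound was tested at five concentrations against cells in 96-well plates for 48 hours. TGI is the concentration that stops growth completely.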
Legend:
Experiment in all cases: inhibition of tumour cell growth, NCI panel, 48 h
ACHN renal = system: ACHN renal
SF-295 CNS = system: SF-295 CNS
NCI-H23 lung = system: NCI-H23 lung
SF-268 CNS = system: SF-268 CNS
NCI-H522 lung = system: NCI-H522 lung
OVCAR-3 ovarian = system: OVCAR-3 ovarian
MDA-MB-231 breast = system: MDA-MB-231 breast
NCI-H460 lung = system: NCI-H460 lung
A549 NSCLC = system: A549 NSCLC
HT29 colon = system: HT29 colon
OVCAR-4 ovarian = system: OVCAR-4 ovarian
OVCAR-5 ovarian = system: OVCAR-5 ovarian
DU-145 prostate = system: DU-145 prostate
MALME-3M melanoma = system: MALME-3M melanoma
IGROV1 ovarian = system: IGROV1 ovarian
EKVX NSCLC = system: EKVX NSCLC
LOX IMVI melanoma = system: LOX IMVI melanoma
PC-3 prostate = system: PC-3 prostate
OVCAR-8 ovarian = system: OVCAR-8 ovarian
NCI-H226 lung = system: NCI-H226 lung
SN12C renal = system: SN12C renal
K-562 leukemia = system: K-562 leukemia
UACC-257 melanoma = system: UACC-257 melanoma
HCT-116 colon = system: HCT-116 colon
T-47D breast = system: T-47D breast
786-0 renal = system: 786-0 renal
U251 CNS = system: U251 CNS
MDA-N = system: MDA-N
KM12 colon = system: KM12 colon
MDA-MB-435 = system: MDA-MB-435
SNB-19 CNS = system: SNB-19 CNS
COLO 205 colon = system: COLO 205 colon
CAKI-1 renal = system: CAKI-1 renal
CCRF-CEM leukemia = system: CCRF-CEM leukemia
SK-MEL-5 melanoma = system: SK-MEL-5 melanoma
SF-539 CNS = system: SF-539 CNS
SNB-75 CNS = system: SNB-75 CNS
A498 renal = system: A498 renal
MOLT-4 leukemia = system: MOLT-4 leukemia
NCI/ADR-RES ovarian = system: NCI/ADR-RES ovarian
HOP-92 NSCLC = system: HOP-92 NSCLC
SW-620 colon = system: SW-620 colon
M14 melanoma = system: M14 melanoma
HCC-2998 colon = system: HCC-2998 colon
UACC-62 melanoma = system: UACC-62 melanoma
SK-MEL-2 melanoma = system: SK-MEL-2 melanoma
HL-60(TB) leukemia = system: HL-60(TB) leukemia
SK-OV-3 ovarian = system: SK-OV-3 ovarian
HOP-62 NSCLC = system: HOP-62 NSCLC
UO-31 renal = system: UO-31 renal
SK-MEL-28 melanoma = system: SK-MEL-28 melanoma
MCF7 breast = system: MCF7 breast
SR leukemia = system: SR leukemia
HCT-15 colon = system: HCT-15 colon
HS 578T breast = system: HS 578T breast
RPMI-8226 leukemia = system: RPMI-8226 leukemia
TK-10 renal = system: TK-10 renal

Measured: TGI

CCOC(=O)c1ccc(NCc2ccc3nc(OC)c(OC)nc3c2)cc1
not listed: HS 578T breast | RPMI-8226 leukemia | TK-10 renal
> 100 µM: all other assays above

CCSC1=N/C(=C\c2ccco2)C(Nc2ccc(C)cc2)=N1
not listed: NCI-H460 lung | OVCAR-4 ovarian | UACC-257 melanoma | T-47D breast | CAKI-1 renal | SF-539 CNS | HCC-2998 colon | HL-60(TB) leukemia
> 100 µM: all other assays above
